Experimental findings from ChEMBL document CHEMBL1122438, “2-Phenylpyrazolo[1,5-a]pyrimidin-7-ones. A new class of nonsteroidal antiinflammatory drugs devoid of ulcerogenic activity” (J Med Chem, 1983) are described below.

For series [1], the species on record is Rattus norvegicus. Put plainly: (§1) Analgesic activity in acetic acid writhing test, activity is expressed as ED50 values. It is filed as functional. For orientation: In writhing tests, fewer writhes than in controls are read as antinociception.
Series [2] has as its system Rattus norvegicus. The series can be described thus: Antiinflammatory activity evaluated by measuring % reduction of edema, 3h after oral administration of 20 mg/kg in carrageenan model. In kind it is functional.
Series [3] concerns Rattus norvegicus. The series can be described thus: Antiinflammatory activity evaluated by measuring % reduction of edema, 3h after oral administration of 30 mg/kg in carrageenan model. It is filed as functional.
For series [4], the system named is Rattus norvegicus. The series can be described thus: Antiinflammatory activity evaluated by measuring % reduction of edema, 3h after oral administration of 50 mg/kg in carrageenan model. In kind it is functional.
For series [5], the system named is Rattus norvegicus. Put plainly: Percent reduction of edema in rat on 23rd day after oral administration of 30 mg/kg in antiarthritis assay. It is filed as functional.
The subject of series [6] is Mus musculus. Put plainly: Percent reduction of edema in mice 3h after oral administration of 30 mg/kg in carrageenan model. It is filed as functional.
For series [7], the system named is Mus musculus. The series can be described thus: Percent reduction of edema in mice 3h after oral administration of 50 mg/kg in carrageenan model. In kind it is functional.
Series [8] relates to Rattus norvegicus. Put plainly: Percent reduction of edema in rat on 23rd day after oral administration of 50 mg/kg in antiarthritis assay; i = Inactive. In kind it is functional, organism-based. Details: dose 50 mg/kg. The note with it: at 50 mg/kg.
In series [9] the test system is Mus musculus. Put plainly: Acute toxicity was evaluated as number of mice (tested=7) died after 72nd hour when 100 mg/kg is administered intraperitoneally. It is filed as organism-based. The note with it: in vivo, ip. Details: dose 100 mg/kg, route intraperitoneal.
The test system of series [10] is Mus musculus. The series can be described thus: Acute toxicity was evaluated as number of mice (tested=7) died after 72nd hour when 115 mg/kg is administered intraperitoneally. The note with it: in vivo, ip. It is filed as organism-based. Also noted: dose 115 mg/kg, route intraperitoneal.
Series [11] has as its system Mus musculus. Put plainly: Analgesic activity evaluated by measuring % analgesic effect, after oral administration of 60 mg/kg in acetic acid writhing test. It is filed as functional.
For series [12], the system named is Mus musculus. The series can be described thus: Analgesic activity evaluated by measuring % analgesic effect, after oral administration of 80 mg/kg in acetic acid writhing test. It is filed as functional.
Series [13] deals with Mus musculus. The series can be described thus: Acute toxicity was evaluated as number of mice (tested=7) died after 72nd hour when 120 mg/kg is administered intraperitoneally. The note with it: in vivo, ip. Also noted: dose 120 mg/kg, route intraperitoneal. It is filed as organism-based.
The test system of series [14] is Mus musculus. The series can be described thus: Acute toxicity was evaluated as number of mice (tested=7) died after 72nd hour when 130 mg/kg is administered intraperitoneally. In kind it is organism-based. Details: dose 130 mg/kg, route intraperitoneal. The note with it: in vivo, ip.
In series [15] the test system is Mus musculus. Put plainly: […] toxicity was evaluated (number of mice died after 72nd hour when 150 mg/kg is administered intraperitoneally. In kind it is organism-based. Also noted: dose 150 mg/kg, route intraperitoneal. The note with it: in vivo, ip.
Series [16] in a line: Toxic activity is expressed as LD50 values. It is filed as toxicity, organism-based. The note with it: mouse, in vivo.
Series [17] can be described thus: Therapeutic index was expressed as LD50/ED50 carragreenin model. The note with it: mouse; read-out: TI.
Series [18] concerns Mus musculus. Put plainly: Analgesic activity evaluated by measuring % analgesic effect, after oral administration of 120 mg/kg in acetic acid writhing test. In kind it is functional.
For series [19], the species on record is Mus musculus. The series is described as §1. In kind it is functional.
The species entered for series [20] is Rattus norvegicus. The series can be described thus: Antiinflammatory activity in carrageenan model, activity is expressed as ED50 values. It is filed as functional.
For series [21], the system named is Rattus norvegicus. The series can be described thus: Antiinflammatory activity evaluated by measuring % reduction of edema, 3h after oral administration of 25 mg/kg in carrageenan model. In kind it is functional.
In series [22] the test system is Rattus norvegicus. Put plainly: Antiinflammatory activity evaluated by measuring % reduction of edema, 3h after oral administration of 100 mg/kg in carrageenan model. It is filed as functional.
Series [23] has as its system Rattus norvegicus. Put plainly: Antiinflammatory activity evaluated by measuring % reduction of edema, 3h after oral administration of 10 mg/kg in carrageenan model. In kind it is functional.
The species entered for series [24] is Rattus norvegicus. Put plainly: Ulcer index of the compound. It is filed as functional.
For series [25], the system named is Mus musculus. Put plainly: Percent reduction of edema in mice 3h after oral administration of 20 mg/kg in carrageenan model. In kind it is functional.
Series [26] concerns Mus musculus. Put plainly: Analgesic activity evaluated by measuring % analgesic effect, after oral administration of 300 mg/kg in acetic acid writhing test. It is filed as functional.
Series [27] has as its system Mus musculus. The series can be described thus: Analgesic activity evaluated by measuring % analgesic effect, after oral administration of 500 mg/kg in acetic acid writhing test. In kind it is functional.
Series [28] relates to Mus musculus. Put plainly: Acute toxicity was evaluated as number of mice (tested=7) died after 72nd hour when 170 mg/kg is administered intraperitoneally. Also noted: dose 170 mg/kg, route intraperitoneal. In kind it is organism-based. The note with it: in vivo, ip.
Series [29] deals with Mus musculus. The series can be described thus: Acute toxicity was evaluated as number of mice (tested=7) died after 72nd hour when 225 mg/kg is administered intraperitoneally. In kind it is organism-based. Details: dose 225 mg/kg, route intraperitoneal. The note with it: in vivo, ip.
For series [30], the system named is Mus musculus. Put plainly: Acute toxicity was evaluated as number of mice (tested=7) died after 72nd hour when 300 mg/kg is administered intraperitoneally. It is filed as organism-based. Details: dose 300 mg/kg, route intraperitoneal. The note with it: in vivo, ip.
Series [31] relates to Mus musculus. Put plainly: Acute toxicity was evaluated as number of mice (tested=7) died after 72nd hour when 350 mg/kg is administered intraperitoneally. In kind it is organism-based. Details: dose 350 mg/kg, route intraperitoneal. The note with it: in vivo, ip.
Series [32] concerns Rattus norvegicus. The series can be described thus: Percent reduction of edema in rat on 23rd day after oral administration of 20 mg/kg in antiarthritis assay. In kind it is functional.
The species entered for series [33] is Rattus norvegicus. Put plainly: Median ulcerogenic dose was determined. In kind it is functional.
Series [34] concerns Rattus norvegicus. The series can be described thus: Ulcer index at 100 mg/kg concentration. It is filed as functional.
For series [35], the system named is Rattus norvegicus. Put plainly: Ulcer index at 50 mg/kg concentration. It is filed as functional.
The subject of series [36] is Rattus norvegicus. The series can be described thus: Ulcer index at 200 mg/kg concentration. In kind it is functional.

Activity calls are given as the source filed them. The rule behind the calls is not given here.

For orientation: ED50 means the midpoint of the dose-response relation. For `CCCn1ccc(=O)n2nc(-c3ccccc3)cc12`, the ED50 in the series filed under Rattus norvegicus [1] came to 29.8 mg/kg. The Reduction turned out to be 31.9% in the series with Rattus norvegicus [2]; 52% in the series on Rattus norvegicus [3]; 70.8% in the series on Rattus norvegicus [4]; 33% with Rattus norvegicus [5]; 52.1% in the series with Mus musculus [6].
Turning to `Cc1cc(=O)n2nc(-c3ccccc3)cc2n1C`, the Reduction in the series on Mus musculus [7] is 56.7%. Besides, in the series on Rattus norvegicus [8], the Reduction result is “inactive”.
As usually defined, the LD50 is the dose at which mortality reaches 50%. Read a high LD50 as lower toxicity. `Cn1ccc(=O)n2nc(-c3ccccc3)cc12`: the Acute toxicity is recorded as 0 in the series with Mus musculus [9]; 1 with Mus musculus [10]; 3 in the series on Mus musculus [13]; 4 in the series on Mus musculus [14]; 6 with Mus musculus [15]. Besides, the Analgesic effect turned out to be 43% in the series with Mus musculus [11], 53.3% in the series with Mus musculus [12] and 80.7% in the series with Mus musculus [18]. In addition, in series [16], the LD50 worked out at 127 mg/kg. Moreover, the selectivity ratio in series [17] worked out at 5.13. The results for the ED50 in the series filed under Mus musculus [19] and in the series listed under Rattus norvegicus [20] were 69.6 mg/kg and 24.7 mg/kg, respectively. For the same compound, the Reduction in the series with Rattus norvegicus [21] was 55.1%; in the series on Rattus norvegicus [22] it was 67.5%; with Rattus norvegicus [23] it was 34.2%; in the series with Rattus norvegicus [5], 29.8%; with Mus musculus [6] it was 54%. This compound also had a UI in the series listed under Rattus norvegicus [24] of 0.5.
For the compound `CCCCC1C(=O)N(c2ccccc2)N(c2ccccc2)C1=O` [PHENYLBUTAZONE], the Reduction in the series on Mus musculus [25] amounted to 52.9%; in the series on Rattus norvegicus [21], 52.9%; with Rattus norvegicus [4], 62.9%; with Rattus norvegicus [23] it was 48.7%; with Rattus norvegicus [32], 20.7%. Also, the Analgesic effect in the series on Mus musculus [26] worked out at 57.7%; with Mus musculus [27] it was 73%. Also, the Acute toxicity in the series on Mus musculus [28] was determined as 0; in the series with Mus musculus [29] it was 2; in the series with Mus musculus [30], 4; in the series with Mus musculus [31], 7. In [16], this compound showed an LD50 of 238 mg/kg. Further, the selectivity ratio in series [17] came to 18.2. In addition, the results for the ED50 in the series listed under Rattus norvegicus [1] and in the series filed under Rattus norvegicus [20] were 274 mg/kg and 13.1 mg/kg, respectively. For the same compound, the UD50 in the series filed under Rattus norvegicus [33] was 72.4 mg/kg. Also, the UI in the series with Rattus norvegicus [34] was 2.55; in the series with Rattus norvegicus [35] it was 1.35; in the series with Rattus norvegicus [36] it was 3.2.
